This is an account of results in patent US20240207263A1, “SELECTIVE MODULATORS OF ATAXIA TELA[…] (ATM) KINASE AND USES THEREOF” (priority 2021, published 2024).

One may read the IC50 as the concentration needed to halve the response being measured.

Molecules are shown by their SMILES.

ATM, sequence (Q13315 whole entry, looked up): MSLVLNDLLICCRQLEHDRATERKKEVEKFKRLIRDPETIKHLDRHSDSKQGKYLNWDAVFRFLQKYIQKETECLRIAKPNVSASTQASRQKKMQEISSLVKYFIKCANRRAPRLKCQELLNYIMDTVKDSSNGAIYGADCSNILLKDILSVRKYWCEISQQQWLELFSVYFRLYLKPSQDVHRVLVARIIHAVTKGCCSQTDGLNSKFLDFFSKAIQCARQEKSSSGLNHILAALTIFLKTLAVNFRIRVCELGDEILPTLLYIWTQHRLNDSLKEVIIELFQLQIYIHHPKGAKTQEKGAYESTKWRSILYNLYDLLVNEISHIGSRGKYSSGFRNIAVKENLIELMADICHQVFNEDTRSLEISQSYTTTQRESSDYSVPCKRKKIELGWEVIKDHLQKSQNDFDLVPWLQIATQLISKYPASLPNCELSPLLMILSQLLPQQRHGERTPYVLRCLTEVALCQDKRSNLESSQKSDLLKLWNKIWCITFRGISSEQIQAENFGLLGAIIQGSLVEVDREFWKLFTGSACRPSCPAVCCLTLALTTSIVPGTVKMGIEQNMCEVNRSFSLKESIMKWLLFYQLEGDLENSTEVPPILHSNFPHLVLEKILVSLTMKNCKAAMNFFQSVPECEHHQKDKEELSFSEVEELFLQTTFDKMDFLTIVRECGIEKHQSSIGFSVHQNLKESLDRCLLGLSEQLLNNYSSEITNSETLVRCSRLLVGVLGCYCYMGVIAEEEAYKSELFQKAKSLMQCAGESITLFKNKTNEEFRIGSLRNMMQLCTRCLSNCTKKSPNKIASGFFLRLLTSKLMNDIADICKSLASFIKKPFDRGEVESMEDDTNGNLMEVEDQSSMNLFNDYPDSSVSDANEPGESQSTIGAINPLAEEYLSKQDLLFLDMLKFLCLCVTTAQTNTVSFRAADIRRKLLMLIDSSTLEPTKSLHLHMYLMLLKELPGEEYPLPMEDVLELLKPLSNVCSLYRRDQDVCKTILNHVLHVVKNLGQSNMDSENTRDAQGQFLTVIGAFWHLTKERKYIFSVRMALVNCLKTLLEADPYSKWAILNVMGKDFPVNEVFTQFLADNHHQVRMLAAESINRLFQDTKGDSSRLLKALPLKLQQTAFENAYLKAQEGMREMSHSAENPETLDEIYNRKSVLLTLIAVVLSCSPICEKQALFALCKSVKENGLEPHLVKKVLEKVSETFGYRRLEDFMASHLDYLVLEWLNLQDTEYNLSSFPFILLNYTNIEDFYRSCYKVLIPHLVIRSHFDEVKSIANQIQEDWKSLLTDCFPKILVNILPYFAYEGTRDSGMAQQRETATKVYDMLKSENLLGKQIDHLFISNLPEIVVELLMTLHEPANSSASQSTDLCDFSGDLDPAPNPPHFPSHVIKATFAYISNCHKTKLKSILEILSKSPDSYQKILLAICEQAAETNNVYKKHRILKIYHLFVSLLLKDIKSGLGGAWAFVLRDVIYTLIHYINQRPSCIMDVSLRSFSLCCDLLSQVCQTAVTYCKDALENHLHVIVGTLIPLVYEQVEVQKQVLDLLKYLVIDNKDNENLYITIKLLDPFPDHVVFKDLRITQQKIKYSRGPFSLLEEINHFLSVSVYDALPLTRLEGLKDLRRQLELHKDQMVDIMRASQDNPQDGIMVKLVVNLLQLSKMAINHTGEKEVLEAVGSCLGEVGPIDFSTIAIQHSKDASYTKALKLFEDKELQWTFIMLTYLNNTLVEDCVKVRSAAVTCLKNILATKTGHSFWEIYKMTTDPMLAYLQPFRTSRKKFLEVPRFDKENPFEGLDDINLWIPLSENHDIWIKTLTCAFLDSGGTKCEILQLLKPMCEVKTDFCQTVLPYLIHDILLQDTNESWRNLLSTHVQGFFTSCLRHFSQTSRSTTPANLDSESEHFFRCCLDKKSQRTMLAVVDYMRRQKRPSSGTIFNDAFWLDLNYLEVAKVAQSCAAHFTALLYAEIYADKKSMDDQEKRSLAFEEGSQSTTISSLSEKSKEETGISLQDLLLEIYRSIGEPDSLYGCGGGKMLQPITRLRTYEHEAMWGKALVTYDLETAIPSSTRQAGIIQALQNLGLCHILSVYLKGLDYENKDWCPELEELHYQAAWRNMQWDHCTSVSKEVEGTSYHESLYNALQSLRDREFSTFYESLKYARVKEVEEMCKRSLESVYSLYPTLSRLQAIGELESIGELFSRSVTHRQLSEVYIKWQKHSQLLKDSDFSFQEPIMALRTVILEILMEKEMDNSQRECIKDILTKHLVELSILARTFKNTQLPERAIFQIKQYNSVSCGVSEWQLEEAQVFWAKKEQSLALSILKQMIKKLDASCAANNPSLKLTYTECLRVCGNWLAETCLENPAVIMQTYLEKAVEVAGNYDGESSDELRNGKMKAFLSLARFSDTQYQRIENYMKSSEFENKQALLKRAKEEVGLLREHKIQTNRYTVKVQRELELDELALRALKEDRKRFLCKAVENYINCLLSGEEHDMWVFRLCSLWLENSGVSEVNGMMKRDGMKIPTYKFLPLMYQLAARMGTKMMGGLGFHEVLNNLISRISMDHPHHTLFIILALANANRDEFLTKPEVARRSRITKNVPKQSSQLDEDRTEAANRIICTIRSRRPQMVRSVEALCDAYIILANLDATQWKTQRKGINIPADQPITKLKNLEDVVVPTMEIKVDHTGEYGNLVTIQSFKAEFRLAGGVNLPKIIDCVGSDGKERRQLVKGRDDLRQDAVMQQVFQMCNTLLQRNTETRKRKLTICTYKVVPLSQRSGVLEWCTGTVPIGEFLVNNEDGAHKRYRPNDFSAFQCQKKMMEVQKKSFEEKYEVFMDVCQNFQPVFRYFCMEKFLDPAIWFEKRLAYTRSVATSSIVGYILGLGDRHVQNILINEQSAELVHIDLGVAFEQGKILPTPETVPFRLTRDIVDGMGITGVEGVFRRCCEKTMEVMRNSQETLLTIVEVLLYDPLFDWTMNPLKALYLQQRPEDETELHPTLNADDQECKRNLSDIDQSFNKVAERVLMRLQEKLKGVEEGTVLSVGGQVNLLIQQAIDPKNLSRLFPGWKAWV

One assay concerns the target ATM (Homo sapiens (Human), UniProt Q13315). The assay is described as follows: biochemical. Type of assay: biochemical.
Settings: not given
From the text: Assay a): ATM Biochemical Potency
Data was collected by Caliper.
The molecule `C[C@@H](OCCN1CCC2(COC2)C1)c1ccc(-c2ccc3nnc4c(c3c2)n(C2CCOCC2)c(=O)n4C)cn1` [Example 116, (R)-8-(6-(1-(2-(2-oxa-6-azaspiro[3.4]octan-6-yl)ethoxy)ethyl)pyridin-3-yl)-3-methyl-1-(tetrahydro-2H-pyran-4-yl)-1H-imidazo[4,5-c]cinnolin-2(3H)-one] yielded an IC50 of 2.9 nM.

Still in this assay, the particulars now being: read-out: ATM IC50.
As to `CC(C)n1c(=O)n(C)c2nnc3ccc(-c4ccc([C@H](C)OCCN5CC6CC6C5)nc4)cc3c21` (stereo partly drawn) [Example 67, 8-(6-((1S)-1-(2-(3-azabicyclo[3.1.0]hexan-3-yl)ethoxy)ethyl)pyridin-3-yl)-1-isopropyl-3-methyl-1H-imidazo[4,5-c]cinnolin-2(3H)-one], the 50% inhibitory concentration (IC50) turned out to be 158 nM.

As to `CC(C)n1c(=O)n(C)c2nnc3ccc(-c4ccc(COCCN5CC(N(C)C)C5)nc4)cc3c21` [Example 37, 8-(6-((2-(3-(dimethylamino)azetidin-1-yl)ethoxy)methyl)pyridin-3-yl)-1-isopropyl-3-methyl-1H-imidazo[4,5-c]cinnolin-2(3H)-one], the IC50 stood at 78 nM.

`CC(C)n1c(=O)n(C)c2nnc3ccc(-c4ccc(COCC5CCCN5C)nc4)cc3c21` (stereo not shown) [Example 10, 1-isopropyl-3-methyl-8-(6-(((1-methylpyrrolidin-2-yl)methoxy)methyl)pyridin-3-yl)-1H-imidazo[4,5-c]cinnolin-2(3H)-one]: the IC50 is 105 nM.

For the molecule `CC(C)n1c(=O)n(C)c2nnc3ccc(-c4ccc([C@@H](C)OCCN5CC[C@H](C)C5)nc4)cc3c21` [Example 78, 1-isopropyl-3-methyl-8-(6-((R)-1-(2-((S)-3-methylpyrrolidin-1-yl)ethoxy)ethyl)pyridin-3-yl)-1H-imidazo[4,5-c]cinnolin-2(3H)-one], the IC50 is 6.4 nM.

As to `CC(C)n1c(=O)n(C)c2nnc3ccc(-c4ccc([C@H](C)OCCN5CCC(C)(C)CC5)nc4)cc3c21` [Example 72, (S)-8-(6-(1-(2-(4,4-dimethylpiperidin-1-yl)ethoxy)ethyl)pyridin-3-yl)-1-isopropyl-3-methyl-1H-imidazo[4,5-c]cinnolin-2(3H)-one], the IC50 was 50 nM. Still for that read-out and setting: the value for `CO[C@@H]1CCN(CCO[C@H](C)c2ccc(-c3ccc4nnc5c(c4c3)n([C@H]3C[C@H](OC)C3)c(=O)n5C)cn2)C1` [Example 163, 1-(trans-3-methoxycyclobutyl)-8-(6-((R)-1-(2-((R)-3-methoxypyrrolidin-1-yl)ethoxy)ethyl)pyridin-3-yl)-3-methyl-1H-imidazo[4,5-c]cinnolin-2(3H)-one] was 7.9 nM; that for `CC(C)n1c(=O)n(C)c2nnc3ccc(-c4ccc(COCCN5CCN(C)CC5)nc4)cc3c21` [Example 32, 1-isopropyl-3-methyl-8-(6-((2-(4-methylpiperazin-1-yl)ethoxy)methyl)pyridin-3-yl)-1H-imidazo[4,5-c]cinnolin-2(3H)-one] was 304 nM. `C[C@@H](OCCN1CC2CC2C1)c1ccc(-c2ccc3nnc4c(c3c2)n(C2CCOCC2)c(=O)n4C)cn1` (stereo partly drawn) [Example 104, 8-(6-((1R)-1-(2-(3-azabicyclo[3.1.0]hexan-3-yl)ethoxy)ethyl)pyridin-3-yl)-3-methyl-1-(tetrahydro-2H-pyran-4-yl)-1H-imidazo[4,5-c]cinnolin-2(3H)-one]: the concentration for half-maximal inhibition (IC50) stood at 19 nM. Still for that read-out and setting: the value for `C[C@@H](OCCN1CCC2(CCC2)CC1)c1ccc(-c2ccc3nnc4c(c3c2)n(C2CCOCC2)c(=O)n4C)cn1` [Example 124, (R)-8-(6-(1-(2-(7-azaspiro[3.5]nonan-7-yl)ethoxy)ethyl)pyridin-3-yl)-3-methyl-1-(tetrahydro-2H-pyran-4-yl)-1H-imidazo[4,5-c]cinnolin-2(3H)-one] was 1.1 nM; that for `CC(C)n1c(=O)n(C)c2nnc3ccc(-c4ccc(COCCN5CCC6(CCC6)CC5)nc4)cc3c21` [Example 49, 8-(6-((2-(7-azaspiro[3.5]nonan-7-yl)ethoxy)methyl)pyridin-3-yl)-1-isopropyl-3-methyl-1H-imidazo[4,5-c]cinnolin-2(3H)-one] was 2.8 nM; that for `CC(C)n1c(=O)n(C)c2nnc3ccc(-c4ccc([C@@H](C)OCC(=O)O)nc4)cc3c21` [Example 216, (R)-2-(1-(5-(1-isopropyl-3-methyl-2-oxo-2,3-dihydro-1H-imidazo[4,5-c]cinnolin-8-yl)pyridin-2-yl)ethoxy)acetic acid] was 339 nM. Still for that read-out and setting: the value for `Cn1c(=O)n(C2CCOCC2)c2c3cc(-c4ccc(COCCN5CC[C@@H](OC(F)F)C5)nc4)ccc3nnc21` [Example 99, (R)-8-(6-((2-(3-(difluoromethoxy)pyrrolidin-1-yl)ethoxy)methyl)pyridin-3-yl)-3-methyl-1-(tetrahydro-2H-pyran-4-yl)-1H-imidazo[4,5-c]cinnolin-2(3H)-one] was 40 nM; that for `CC(C)n1c(=O)n(C)c2nnc3ccc(-c4ccc(COCCN5CC[C@@H](F)C5)nc4)cc3c21` [Example 28, (R)-8-(6-((2-(3-fluoropyrrolidin-1-yl)ethoxy)methyl)pyridin-3-yl)-1-isopropyl-3-methyl-1H-imidazo[4,5-c]cinnolin-2(3H)-one] was 81 nM; that for `CC(C)n1c(=O)n(C)c2nnc3ccc(-c4ccc(COC5CCCN(C)C5)nc4)cc3c21` (stereo not shown) [Example 13, 1-isopropyl-3-methyl-8-(6-(((1-methylpiperidin-3-yl)oxy)methyl)pyridin-3-yl)-1H-imidazo[4,5-c]cinnolin-2(3H)-one] was 144 nM. For `Cn1c(=O)n(C2CCOCC2)c2c3cc(-c4ccc(COCCN5CCC(F)CC5)nc4)ccc3nnc21` [Example 95, 8-(6-((2-(4-fluoropiperidin-1-yl)ethoxy)methyl)pyridin-3-yl)-3-methyl-1-(tetrahydro-2H-pyran-4-yl)-1H-imidazo[4,5-c]cinnolin-2(3H)-one], the IC50 was 47 nM. With `CC(COCc1ccc(-c2ccc3nnc4c(c3c2)n(C(C)C)c(=O)n4C)cn1)N1CC2CC2C1` (stereo not shown) [Example 16, 8-(6-((2-(3-azabicyclo[3.1.0]hexan-3-yl)propoxy)methyl)pyridin-3-yl)-1-isopropyl-3-methyl-1H-imidazo[4,5-c]cinnolin-2(3H)-one], the IC50 was 201 nM. The same measure, in the same setting: the value for `CC(C)n1c(=O)n(C)c2nnc3ccc(-c4ccc(COCCN5CCCCC5)nc4)cc3c21` [Example 3, 1-isopropyl-3-methyl-8-(6-((2-(piperidin-1-yl)ethoxy)methyl)pyridin-3-yl)-1H-imidazo[4,5-c]cinnolin-2(3H)-one] was 36 nM; that for `CC(C)O[C@@H]1CCN(CCO[C@H](C)c2ccc(-c3ccc4nnc5c(c4c3)n(C3CCOCC3)c(=O)n5C)cn2)C1` [Example 113, 8-(6-((R)-1-(2-((R)-3-isopropoxypyrrolidin-1-yl)ethoxy)ethyl)pyridin-3-yl)-3-methyl-1-(tetrahydro-2H-pyran-4-yl)-1H-imidazo[4,5-c]cinnolin-2(3H)-one] was 7.5 nM; that for `CO[C@H]1C[C@@H](n2c(=O)n(C)c3nnc4ccc(-c5ccc([C@@H](C)OCCN6CCC7(CC6)CC7)nc5)cc4c32)C1` [Example 170, 8-(6-((R)-1-(2-(6-azaspiro[2.5]octan-6-yl)ethoxy)ethyl)pyridin-3-yl)-1-(cis-3-methoxycyclobutyl)-3-methyl-1H-imidazo[4,5-c]cinnolin-2(3H)-one] was 1.6 nM. For `Cn1c(=O)n(C2CCOCC2)c2c3cc(-c4ccc(COCCN5CCC(OC(F)(F)F)CC5)nc4)ccc3nnc21` [Example 101, 3-methyl-1-(tetrahydro-2H-pyran-4-yl)-8-(6-((2-(4-(trifluoromethoxy)piperidin-1-yl)ethoxy)methyl)pyridin-3-yl)-1H-imidazo[4,5-c]cinnolin-2(3H)-one], the half-maximal inhibitory concentration (IC50) came to 3.7 nM. Same read-out and setting: the value for `CC(C)n1c(=O)n(C)c2nnc3ccc(-c4ccc([C@@H](C)OCCN5CCC(C)(C#N)C5)nc4)cc3c21` (stereo partly drawn) [Example 90, 1-(2-((R)-1-(5-(1-isopropyl-3-methyl-2-oxo-2,3-dihydro-1H-imidazo[4,5-c]cinnolin-8-yl)pyridin-2-yl)ethoxy)ethyl)-3-methylpyrrolidine-3-carbonitrile] was 11 nM. As for `CO[C@H]1C[C@H](n2c(=O)n(C)c3nnc4ccc(-c5ccc(COCCN6CCCC6)nc5)cc4c32)C1` [Example 166, 1-(trans-3-methoxycyclobutyl)-3-methyl-8-(6-((2-(pyrrolidin-1-yl)ethoxy)methyl)pyridin-3-yl)-1H-imidazo[4,5-c]cinnolin-2(3H)-one], the IC50 was 58 nM. For `COC[C@@H]1CCN(CCO[C@H](C)c2ccc(-c3ccc4nnc5c(c4c3)n(C3CCOCC3)c(=O)n5C)cn2)C1` [Example 119, 8-(6-((R)-1-(2-((R)-3-(methoxymethyl)pyrrolidin-1-yl)ethoxy)ethyl)pyridin-3-yl)-3-methyl-1-(tetrahydro-2H-pyran-4-yl)-1H-imidazo[4,5-c]cinnolin-2(3H)-one], the IC50 turned out to be 2.4 nM.

On to `CO[C@H]1C[C@@H](n2c(=O)n(C)c3nnc4ccc(-c5ccc(COCCN6CCCC6)nc5)cc4c32)C1` [Example 172, 1-(cis-3-methoxycyclobutyl)-3-methyl-8-(6-((2-(pyrrolidin-1-yl)ethoxy)methyl)pyridin-3-yl)-1H-imidazo[4,5-c]cinnolin-2(3H)-one], for which the 50% inhibitory concentration (IC50) worked out at 21 nM. Still for that read-out and setting: the value for `CC(C)n1c(=O)n(C)c2nnc3ccc(-c4ccc([C@@H](C)OCCN5CCC(OC(F)(F)F)CC5)nc4)cc3c21` [Example 58, (R)-1-isopropyl-3-methyl-8-(6-(1-(2-(4-(trifluoromethoxy)piperidin-1-yl)ethoxy)ethyl)pyridin-3-yl)-1H-imidazo[4,5-c]cinnolin-2(3H)-one] was 1.4 nM; that for `CC(C)n1c(=O)n(C)c2nnc3ccc(-c4ccc(COCCCN5CC6CC6C5)nc4)cc3c21` (stereo not shown) [Example 12, 8-(6-((3-(3-azabicyclo[3.1.0]hexan-3-yl)propoxy)methyl)pyridin-3-yl)-1-isopropyl-3-methyl-1H-imidazo[4,5-c]cinnolin-2(3H)-one] was 47 nM.

Take `C[C@@H]1CCN(CCO[C@H](C)c2ccc(-c3ccc4nnc5c(c4c3)n(C3CCOCC3)c(=O)n5C)cn2)C1` [Example 123, 3-methyl-8-(6-((R)-1-(2-((R)-3-methylpyrrolidin-1-y)ethoxy)ethyl)pyridin-3-yl)-1-(tetrahydro-2H-pyran-4-yl)-1H-imidazo[4,5-c]cinnolin-2(3H)-one]: the IC50 worked out at 16 nM.
